In patent US20070259888A1, “Novel Compounds” (ASTRAZENECA AB, priority 2006, published 2007):

Tests used:
[1] = target: T1, hM1 (human Muscarinic receptor subtype 1) (Homo sapiens, UniProt P11229); experiment: Human M1 calcium mobilization FLIPR assay; type: cell-based; conditions: CHO cells expressing hM1, FLIPR; for EC50: read-out: hM1EC50; for Emax: read-out: hM1Emax
T1 construct: expressed in transfected cells; host or cells: CHO cells (chinese hamster ovary cells, ATCC)
T1 sequence (P11229 1-460): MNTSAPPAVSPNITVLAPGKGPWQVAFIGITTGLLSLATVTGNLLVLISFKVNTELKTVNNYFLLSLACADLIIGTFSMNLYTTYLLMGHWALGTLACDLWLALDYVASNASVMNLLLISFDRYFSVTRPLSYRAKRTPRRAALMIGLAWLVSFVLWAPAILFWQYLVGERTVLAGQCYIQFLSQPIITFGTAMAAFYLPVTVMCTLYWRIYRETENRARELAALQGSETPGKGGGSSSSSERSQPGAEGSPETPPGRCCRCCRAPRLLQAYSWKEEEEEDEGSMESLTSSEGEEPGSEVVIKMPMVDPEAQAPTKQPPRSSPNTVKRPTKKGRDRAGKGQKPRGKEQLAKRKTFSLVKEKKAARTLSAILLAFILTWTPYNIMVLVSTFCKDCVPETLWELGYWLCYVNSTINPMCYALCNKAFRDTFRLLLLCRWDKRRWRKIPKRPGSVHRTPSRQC
Method: The compound activity in the present invention (EC50 or IC50) was measured using a 384 plate-based imaging assay that monitors drug induced intracellular Ca^2+ release in whole cells. Activation of hM1 (human Muscarinic receptor subtype 1, gene bank access NM_000738), rM1 (rat Muscarinic receptor subtype 1, gene bank access NM_080773), hM3 (human Muscarinic receptor subtype 3, gene bank access NM_000740NM_000740) and hM5 (human Muscarinic receptor subtype 5, gene bank access NM_0121258) receptors expressed in CHO cells (chinese hamster ovary cells, ATCC) was quantified in a Molecular Devices FLIPR II™ instrument as an increase in fluorescent signal. Inhibition of hM3 and hM5 by compounds was determined by the decrease in fluorescent signal in response to 2 nM acetylcholine activation.
CHO cells were plated in 384-black polylysine coated plate (Costar) at 8000 cells/well/50 μl for 24 hours or 4000 cells/well for 48 hours in a humidified incubator (5% CO2 and 37° C.) in DMEM/F12 medium without selection agent. Prior to the experiment the cell culture medium was removed from the plates by inversion. A loading solution of 30 μl of Hank's balanced salt solution, 10 mM Hepes and 2.5 mM Probenicid at Ph 7.4 (Cat no. 311-520-VL, Wisent) with 2 μM calcium indicator dye (FLUO-3AM, Molecular Probes F14202) was added to each well. Plates were incubated at 37° C. for 60 minutes prior to start the experiment. The incubation was terminated by washing the cells four times in assay buffer, leaving a residual 25 μl buffer per well. Cell plates were then transferred to the FLIPR, ready for compound additions.
The day of experiment, acetylcholine and compounds were diluted in three-fold concentration range (10 points serial dilution) for addition by FLIPR instrument. For all calcium assays, a baseline reading was taken for 30 seconds followed by the addition of 12.5 μl (25 μl for hM1 and rM1) of compounds, resulting in a total well volume of 37.5 μl (50 μl for hM1 and rM1). Data were collected every 1.6 seconds for 300 seconds. For hM3 and hM5 an additional 12.5 μl of acetylcholine (2 nM final) was added at 300 seconds. After this addition of acetylcholine (producing a final volume of 50 μl), the FLIPR continued to collect data every 2 seconds for 240 seconds. The fluorescence emission was read using filter 1 (emission 520-545 nm) by the FLIPR on board CCD camera.
Calcium mobilization output data were calculated as the maximal relative fluorescence unit (RFU) minus the minimal value for both compound and agonist reading frame (except for hM1 and rM1 using only the maximal RFU). Data were analyzed using sigmoidal fits of a non-linear curve-fitting program (XLfit version 5.0.6 from ID Business Solutions Limited, Guildford, UK). All EC50 and IC50 values are reported as geometric means of ‘n’ independent experiments.

[2] = target: T2, human M2 receptor (human Muscarinic receptor subtype 2) (Homo sapiens, UniProt P08172); experiment: hM2 receptor GTPγS binding; type: biochemical; conditions: CHO membranes expressing hM2, GTPγ35S binding; for EC50: read-out: hM2_EC50
T2 construct: purchased Perkin-Elmer RBHM2M; host or cells: Chinese hamster ovary cells (CHO), membranes
T2 sequence (P08172 1-466): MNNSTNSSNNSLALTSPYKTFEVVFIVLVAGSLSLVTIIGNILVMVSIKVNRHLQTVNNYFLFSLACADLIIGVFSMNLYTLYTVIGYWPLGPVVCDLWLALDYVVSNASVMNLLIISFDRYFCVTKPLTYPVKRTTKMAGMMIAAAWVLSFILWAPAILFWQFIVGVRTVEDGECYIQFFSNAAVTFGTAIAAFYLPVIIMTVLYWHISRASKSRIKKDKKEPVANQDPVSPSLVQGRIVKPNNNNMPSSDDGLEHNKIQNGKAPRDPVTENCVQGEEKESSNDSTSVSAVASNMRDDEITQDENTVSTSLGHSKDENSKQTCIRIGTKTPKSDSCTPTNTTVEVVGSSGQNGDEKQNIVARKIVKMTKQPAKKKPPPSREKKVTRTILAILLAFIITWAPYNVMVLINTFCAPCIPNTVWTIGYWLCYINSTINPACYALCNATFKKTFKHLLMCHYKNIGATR
Method: hM2 Receptor GTPyS Binding
Membranes produced from Chinese hamster ovary cells (CHO) expressing the cloned human M2 receptor (human Muscarinic receptor subtype 2, gene bank access NM_000739), were obtained from Perkin-Elmer (RBHM2M). The membranes were thawed at 37° C., passed 3 times through a 23-gauge blunt-end needle, diluted in the GTPγS binding buffer (50 mM Hepes, 20 mM NaOH, 100 mM NaCl, 1 mM EDTA, 5 mM MgCl2, pH 7.4, 100 μM DTT). The EC50, IC50 and Emax of the compounds of the invention were evaluated from 10-point dose-response curves (three fold concentration range) done in 60 μl in 384-well non-specific binding surface plate (Corning). Ten microliters from the dose-response curves plate (5× concentration) were transferred to another 384 well plate containing the following: 10 μg of hM2 membranes, 500 μg of Flashblue beads (Perkin-Elmer) and GDP in a 25 μl volume. An additional 15 μl containing 3.3× (55000 dpm) of GTPγ^35S (0.4 nM final) were added to the wells resulting in a total well volume of 50 μl. Basal and maximal stimulated GTPγ^35S binding was determined in absence and presence of 30 μM of acetylcholine agonist. The membranes/beads mix were pre-incubated for 15 minutes at room temperature with 25 μM GDP prior to distribution in plates (12.5 μM final). The reversal of acetylcholine-induced stimulation (2 μM final) of GTPγ^35S binding was used to assay the antagonist properties (IC50) of the compounds. The plates were incubated for 60 minutes at room temperature with shaking, then centrifuged at 2000 rpm for 5 minutes. The radioactivity (cpm) was counted in a Trilux (Perkin-Elmer).
Values of EC50, IC50 and Emax were obtained using sigmoidal fits of a non-linear curve-fitting program (XLfit version 5.0.6 from ID Business Solutions Limited, Guildford, UK) of percent-stimulated GTPγ^35S binding vs. log (molar ligand).
All EC50 and IC50 values are reported as geometric means of ‘n’ independent experiments. […] The IC50 was the concentration of the compound of the invention at which 50% inhibition of acetylcholine GTPγ^35S binding stimulation has been observed.

| EC50 [1] [nM] | Emax [1] [%] | Emax [2] [%] | EC50 [2] [nM] | Compound |
| --- | --- | --- | --- | --- |
| 11 | 102 | 40 | 1430 | CCOC[C@@H]1CCCN(C[C@H]2CCCC[C@@H]2NC(=O)c2ccc(CNS(=O)(=O)C3CC3)cc2)C1 |
| 393 | 105 |  |  | O=C(N[C@H]1CCCC[C@@H]1CN1CCCC(c2ccccc2)C1)c1ccc(-n2cccn2)nc1 (stereo partly shown) |
| 322 | 91 |  |  | CCOC[C@@H]1CCCN(C[C@H]2CCCC[C@@H]2NC(=O)CNC(C)=O)C1 |
| 1500 | 76 |  |  | CCO[C@@H]1CCCN(C[C@H]2CCCC[C@@H]2NC(=O)c2cnccn2)C1 |
| 17 | 97 | 25 | 5480 | CCOCC1CCCN(C[C@@H]2CCCC[C@H]2NC(=O)c2ccc(-c3cnco3)cc2)C1 (mixture of isomers) |
| 174 | 86 | 38 | 1230 | CCCCC1CCCN(C[C@@H]2CCCC[C@H]2NC(=O)CCc2ccc(Cl)cc2)C1 (mixture of isomers) |
| 103 | 94 | 2 | 165 | CCCCC1CCCN(C[C@@H]2CCCC[C@H]2NC(=O)c2ccc(CN(CC)CC)cc2)C1 (mixture of isomers) |
| 49 | 80 | 19 | 390 | C=CCOCC1CCCN(C[C@@H]2CCCC[C@H]2NC(=O)c2ccc(CN3CCN(C)CC3)cc2)C1 (mixture of isomers) [Trans-(±)-N-[2-({3-[(Allyloxy)methyl]piperidin-1-yl}methyl)cyclohexyl]-4-[(4-methylpiperazin-1-yl)methyl]benzamide] |
| 103 | 91 | 18 | 3300 | CCOC[C@@H]1CCCN(C[C@H]2CCCC[C@@H]2NC(=O)c2ccc(CN(C(C)=O)C(C)=O)cc2)C1 [4-[(diacetylamino)methyl]-N-((1S,2R)-2-{[(3R)-3-(ethoxymethyl)piperidin-1-yl]methyl}cyclohexyl)benzamide] |
| 33 | 97 | 50 | 4450 | C=CCO[C@@H]1CCCN(C[C@H]2CCCC[C@@H]2NC(=O)c2ccc(-n3cccn3)nc2)C1 [N-((1S,2R)-2-{[(3R)-3-(allyloxy)piperidin-1-yl]methyl}cyclohexyl)-6-(1H-pyrazol-1-yl)nicotinamide] |
| 504 | 54 |  |  | CCOC[C@@H]1CCCN(C[C@H]2CCCC[C@@H]2NC(=O)c2cnc(C)cc2C)C1 [N-((1S,2R)-2-{[(3R)-3-(ethoxymethyl)piperidin-1-yl]methyl}cyclohexyl)-4,6-dimethylnicotinamide] |
| 9 | 95 | 27 | 1210 | CCOC[C@@H]1CCCN(C[C@H]2CCCC[C@@H]2NC(=O)c2ccc(-n3cnnn3)cc2)C1 [N-((1S,2R)-2-{[(3R)-3-(ethoxymethyl)piperidin-1-yl]methyl}cyclohexyl)-4-(1H-tetrazol-1-yl)benzamide] |
| 152 | 85 | 0 | > 30000 | CCOC[C@@H]1CCCN(C[C@H]2CCCC[C@@H]2NC(=O)c2ccc3c(c2)OCCN3C)C1 [N-((1S,2R)-2-{[(3R)-3-(ethoxymethyl)piperidin-1-yl]methyl}cyclohexyl)-4-methyl-3,4-dihydro-2H-1,4-benzoxazine-7-carboxamide] |
| 20 | 95 | 34 | 1340 | CCOC[C@@H]1CCCN(C[C@H]2CCCC[C@@H]2NC(=O)c2ccc(CNS(C)(=O)=O)cc2)C1 [N-((1S,2R)-2-{[(3R)-3-(ethoxymethyl)piperidin-1-yl]methyl}cyclohexyl)-4-{[(methylsulfonyl)amino]methyl}benzamide] |
| 22 | 82 | 0 | > 30000 | CCOC[C@@H]1CCCN(C[C@H]2CCCC[C@@H]2NC(=O)c2cc3nc(C)cc(C)n3n2)C1 [N-((1S,2R)-2-{[(3R)-3-(ethoxymethyl)piperidin-1-yl]methyl}cyclohexyl)-5,7-dimethylpyrazolo[1,5-a]pyrimidine-2-carboxamid] |
| 41 | 91 | 60 | 107 | CCOC[C@@H]1CCCN(C[C@H]2CCCC[C@@H]2NC(=O)c2ccc(N3CCCC3)nc2)C1 [N-((1S,2R)-2-{[(3R)-3-(ethoxymethyl)piperidin-1-yl]methyl}cyclohexyl)-6-pyrrolidin-1-ylnicotinamide] |
| 119 | 74 | 34 | 1910 | CCOC[C@@H]1CCCN(C[C@H]2CCCC[C@@H]2NC(=O)c2ccccc2)C1 [N-((1S,2R)-2-{[(3R)-3-(ethoxymethyl)piperidin-1-yl]methyl}cyclohexyl)benzamide] |
| 55 | 98 | 54 | 570 | CCOC[C@@H]1CCCN(C[C@H]2CCCC[C@@H]2NC(=O)C2CCc3ccccc3O2)C1 (stereo partly drawn) [N-((1S,2R)-2-{[(3R)-3-(ethoxymethyl)piperidin-1-yl]methyl}cyclohexyl)chromane-2-carboxamide] |
